The assay relates to gp60-mediated caveolar transcytosis. Description: Inhibition of transport of paclitaxel from ABX across endothelial monolayers. The class given is cell-based, human. From the text: Transport was dependent on albumin.

`CCN1C(=O)C=CC1=O` [NEM]: the “effect on transport of paclitaxel from ABX across endothelial monolayers” value is “inhibited”. Turning to β-methyl cyclodextrin [BMC], the “effect on transport of paclitaxel from ABX across endothelial monolayers” value is “inhibited”.

The values above are taken from patent US7332568B2, “Q3 SPARC deletion mutant and uses thereof” (Abraxis BioScience, Inc., priority 2005, dated 2008).
